US12721892B2, “Methods and compositions for chimeric antigen receptor targeting cancer cells” (The University of North Carolina at Chapel Hill, priority 2019, dated 2026)
Entries after “also recorded” stand apart in the source; their conditions may differ. One block for each compound: values may come before it.

Assays:
CAR-CD3ζ phosphorylation = assay: Western blot of CAR-CD3ζ and proximal signaling phosphorylation; assay type: cell-based, human
Procedure: For western blot assays, protein lysate was normalized according to the amount of CAR expression and resolved on 4%-15% SDS polyacrylamide gel electrophoresis gels (SDS-PAGE, Bio-Rad). After protein transfer onto Polyvinylidene fluoride membranes (Bio-Rad), membranes were blocked in 5% non-fat milk in TBS-T and incubated with primary and secondary Abs in TBS-T with 1% milk. The following Abs were used: anti-CD3pY83 and anti-CD3pY142 (Abcam), anti-ZAP70pY319, anti-ZAP70, anti-LATpY191, anti-LAT, anti-LCK, anti-THEMIS, anti-SHP1 and anti-HA tag (Cell Signaling Technology), anti-CD3ζ, anti-FKBP, anti-β-actin (Santa Cruz), anti-FLAG (M2) (Sigma) and horseradish peroxidase conjugated secondary Abs (Goat-anti-mouse, Goat-anti-Rabbit from Thermo Scientific). Membranes were developed with SuperSignal West Femto Maximum Sensitivity Substrate (Thermo Scientific) on a Gel station (Bio-Rad).

[1] = Humanized mouse CRS model of SHP1 heterodimerization; assay type: in vivo, humanized NSG mice
Text: For the humanized mouse model to evaluate the effects of SHP1 heterodimerization in CAR-T cells in vivo, humanized NSG (NOD-scid IL2Rg^null) mice (NSG-hu HSC) were generated. Briefly, human fetal liver tissues were obtained from elective or medically indicated termination of pregnancy through a non-profit intermediary working with outpatient clinics (Advanced Bioscience Resources). CD34^+ hematopoietic stem cells (HSC) were transplanted in newborn NSG mice through intra-liver injection of 2×10^5 purified HSC. Human immune cell engraftment was detected by flow cytometry 12 weeks after transplantation. Standard parameters of evaluation of CRS in humanized NSG mice was performed. Mice were infused with 5×10^6 CAR-T cells at day 0, and plasma was collected at days 1 and 2. AP21967 was administrated intraperitoneally at 10 mg/kg dose. Weight of each mouse was normalized to starting weight before CAR-T cell infusion. In a second CRS murine model, 7-10-week-old female C.B-Igh-1b/GbmsTac-Prkdc^scid-Lyst^bgN7 (SCID-beige, Taconic Biosciences) mice were injected i.p. with Raji-FFluc cells. After 21 days, mice were grouped based on the BLI (total flux). Mice were infused i.p. with 30×10^6 CAR-T cells. Weight of each mouse was normalized to starting weight before CAR-T cell infusion.

[2] = test system: CD19+ BV173 tumor cell line; assay: Co-culture / stimulation with CD19+ BV173 tumor cells; assay type: cell-based, human
Procedure: (§1) For activation of CD19-specific CAR-T cells with the anti-idiotype Ab or CD19^+ tumor cells, anti-CAR19 and anti-CD3 Abs were serially diluted 2-fold, and coated on non-tissue culture treated 96-well plates for 16 hours. Plates were washed twice before plating T cells (2.5×10^5 cells/well). Plates were centrifuged at 1,000 g for 5 min, and incubated at 37° C. for 6 hours. Plates were then briefly spun, and 200 μl of the supernatant was collected for ELISA. Cells were collected and stained with anti-CAR19, CD4-PE, CD69-FITC Abs and Zombie Aqua™ dye (Biolegend) at 4° C. for 30 min. Samples were fixed and stored for flow cytometry analysis. For tumor cell-mediated activation, 5×10^4 BV173 tumor cells were seeded in each well of 96-well plates, and T cells were serially diluted and seeded. Six hours later, supernatant was collected for ELISA.
(§2) Cytokines in culture supernatants and plasma were measured using enzyme-linked immunosorbent assay (ELISA) or magnetic luminex assay following manufacturer's instructions (R&D Systems). Data were collected and analyzed using the Lumina-200 System and the Bio-Plex Manager 6.1 software (Bio-Rad).
For co-culture assays, CD19^+ BV173 tumor cells were seeded into 24-well plates with 5×10^5 cells/well and T cells were added at different effector to target (E:T) ratios (E:T=1:1 or 1:5). After 24 hours, supernatant was collected for ELISA. Three days later, cells were collected and stained with anti-human CD3 and CD19 Abs for flow cytometry analysis.

Daudi-FFLuc cells = assay: NSG xenograft lymphoma model of SHP1 heterodimerization; assay type: in vivo, NSG mice
Procedure: Animal studies were performed in accordance with the Institutional Animal Care and Use Committee of UNC. For long-term in vivo cytotoxicity, male or female NSG (NOD-scid IL2Rg^null) mice were injected intravenously (i.v.) with 2×10^6 CD19^+ Daudi tumor cell line labeled with the Firefly luciferase gene (Daudi-FFLuc). Four to seven days later, mice received T cells control or expressing CARs intravenously (i.v.). For tumor re-challenging experiments, 2×10^6 CD19^+ Daudi-FFLuc cells were i.v. injected at indicated time point. Tumor growth was monitored every 2-3 days by injecting mice intraperitoneally (i.p.) with D-luciferin (150 mg/kg, Xenolight, PerkinElmer). Photon emission was analyzed using the Xenogen-IVIS Imaging System. For short-term in vivo T cell activation, NSG mice were injected with Daudi-FFLuc cells i.v. Two weeks later, CAR19.28ζ-Ts were labeled with Cell-trace Violet (Thermo Scientific) and CAR19.BBζ-Ts were labeled with CFSE (Thermo Scientific) as per manufacturer's instructions. Cells were mixed 1:1, and a total 1×10^7 cells were i.v. injected in each mouse. Peripheral blood, bone marrow, lung and spleen were harvested 6 hours after T cell injection, dissociated into single cells and stained with anti-human CD45-PE, CD3-APC and CD69-PE-Cy7 Abs. […] Tumor growth was monitored twice a week.

[3] = test system: CD69 expression and cytokine release of CAR-T cells; assay: Activation of CAR-T cells with anti-CAR19 anti-idiotype Ab (CD69 expression, cytokine release); assay type: cell-based, human
Procedure: as §1, §2

[4] = test system: Ca2+ influx in CAR-T cells; assay: Ca2+ influx assay after anti-CAR19 Ab stimulation; assay type: cell-based, human; conditions: stimulated with α-CAR19 antibody; FIG. 6
Procedure: For Ca^2+ influx assays, T cells were incubated with Ca^2+ indicator as per manufacturer's instructions (Ca^2+ influx assay, BD Bioscience). Cells were incubated with anti-CAR19 Ab followed by goat anti-mouse secondary Ab on ice. Ca^2+ current was measured by flow cytometry for time-lapsed fluorescence change. Cells were first collected on ice as the baseline of the Ca^2+ current, and then activated at 37° C. for the Ca^2+ current during T cell activation.

[5] = transient AP21967, FIGS. 21B-21C

Compound: CD8α-wt: wild type CD8α
- Basal CAR-CD3ζ phosphorylation in CD4+ T cells co-expressing CAR.19.BK (CAR-CD3ζ phosphorylation; co-expression of CD8α construct, FIG. 2D top): increased

- Weight loss ([1]; AP21967 twice on day 1, 10 mg/kg intraperitoneally, FIG. 21A): alleviated their weight loss
- Release in the plasma of human GM-CSF [1, 5]: significantly reduced
- Release in the plasma of human IFNγ [1, 5]: significantly reduced
- Release in the plasma of human IL-6 [1, 5]: significantly reduced
- Release in the plasma of human TNFα [1, 5]: significantly reduced
Compound: CO[C@H]1[C@@H](O)[C@H](C)C[C@H](C)/C=C/C=C/C=C(\C)[C@@H](c2c[nH]c3c(C)cccc23)C[C@@H]2CC[C@@H](C)[C@@](O)(O2)C(=O)C(=O)N2CCCC[C@H]2C(=O)O[C@H]([C@H](C)C[C@@H]2CC[C@@H](O)[C@H](OC)C2)C[C@H](O)[C@H](C)/C=C(\C)[C@H]1O [AP21967]
- Therapeutic effect of CAR19.28ζ-T cells in vivo ([1]; cell counts on day 21, FIG. 21D): did not impair the therapeutic effect
- Antitumor activity in vitro ([2]; CAR19.28ζ-T cells with FKBP-SHP1, BV173 co-culture): without compromising their antitumor activity in vitro
- IFNγ release / production ([2]; CAR19.28ζ.FRB-T cells with FKBP-SHP1 and BV173 at 1:5 ratio, FIGS. 17 and 18): reduces IFNγ release by CAR19.28ζ-T cells in a reversible manner; also recorded: reversible regulation of IFNγ production
- Cytotoxicity ([2]; FKBP-SHP1 co-expressed, FIG. 17): controlled cytotoxicity
- IFNγ release in vivo (plasma) (Daudi-FFLuc cells; AP21967 twice on day 2, 10 mg/kg intraperitoneally, FIG. 20A): reduced IFNγ release by CAR19.28ζ-T cells co-expressing SHP1
- Antitumor effects in vivo (Daudi-FFLuc cells; AP21967 twice on day 2, tumor growth days 7-39, FIG. 20B): without impairing their antitumor effects
- CAR-CD3ζ phosphorylation upon antigen binding (CAR-CD3ζ phosphorylation; CAR19.28ζ.FRB-T cells co-transduced with FKBP-SHP1, 1 μM AP21967, FIG. 16): tunes down CAR-CD3ζ phosphorylation upon antigen binding
- Antigen-independent CAR-CD3ζ phosphorylation of CAR19.28ζ-Ts (CAR-CD3ζ phosphorylation; FKBP-SHP1 co-expressed, FIG. 16): reduce antigen-independent CAR-CD3ζ phosphorylation

Compound: CC(C)(C)n1nc(-c2ccc(Cl)cc2)c2c(N)ncnc21 [PP2]
- Responsiveness of CAR19.28ζ-T cells to CAR crosslinking (CD69, IFNγ and IL-2) after PP2 pretreatment ([3]; 10 μM PP2 for 16 hours, low doses of anti-CAR19 antibody, FIG. 2B): reduced their responsiveness to CAR crosslinking with low doses of anti-CAR19 antibody to similar levels of CAR19.BBζ-T cells
- PP2-mediated inhibition in CAR19.28ζ-T cells at high doses of anti-CAR19 antibody ([3]; 10 μM PP2 pretreatment, high doses of anti-CAR19 antibody): partially overcame
- CAR-CD3ζ basal phosphorylation of CAR19.28ζ-T cells on addition of kinase inhibitor (CAR-CD3ζ phosphorylation; inhibitor at 10 μM for 16 hours, FIG. 2A): abrogated

Compound: LCK: full-length human LCK, FLAG-tagged, overexpressed in CAR-T cells
- Ca2+ influx with LCK overexpression [4]: increasing; also recorded: correspondingly increased
- CAR-CD3ζ phosphorylation in CAR19.28ζ-Ts with LCK overexpression (CAR-CD3ζ phosphorylation; FIG. 5): enhanced
- Basal CAR-CD3ζ phosphorylation in CAR19.BBζ-T cells with LCK overexpression (CAR-CD3ζ phosphorylation; day 10 of in vitro expansion, three donors, FIG. 5): increasing; also recorded: dramatically increased CAR-CD3ζ phosphorylation of CAR19.BBζ to a comparable level as CAR19.28ζ

Compound: [Na+].[Na+].[Na+].[O]=[V]([O-])([O-])[O-] [Na3 VO4]
- Antigen-independent phosphorylation of CAR-CD3ζ in CAR19.BBζ-T cells (CAR-CD3ζ phosphorylation; 200 μM phosphatase inhibitor, FIG. 2E): promoted
